Source: patent US7189756B2, “Pyrrolidine derivatives” (Hoffman-La Roche Inc., priority 2000, dated 2007)

SMILES	melting point
CCOC(=O)c1nnn(C[C@@H]2C[C@@H](S)CN2S(=O)(=O)c2ccc3ccccc3c2)c1C	95 °C
Cc1c(-c2ccccc2)nnn1C[C@@H]1C[C@@H](S)CN1S(=O)(=O)c1ccc2ccccc2c1	146 °C
Nc1c(-c2ccccc2)nnn1C[C@@H]1C[C@@H](S)CN1S(=O)(=O)c1ccc2ccccc2c1	70 °C
CS(=O)(=O)N1C[C@H](S)C[C@H]1Cn1nnc(C(N)=O)c1N	189 °C
CS(=O)(=O)N1C[C@H](S)C[C@H]1COCC1CCCCC1	68 to 69 °C
O=C(Nc1ccccc1F)N1C[C@H](S)C[C@H]1CNCc1cc(F)ccc1F	126 °C
